Measured values published in paper PMC3618516, “A Systematic Screen of FDA-Approved Drugs for Inhibitors of Biological Threat Agents” (PLoS ONE, 2013).
Read-outs that look alike come from different tables or passages of the source.

Columns and labels:
EBOV [1] = experiment: microbe, parasite or virus in culture; type: cell-based, Ebola virus; conditions: for EC50: read-out: EC50, EBOV Replication; for EC90: read-out: EC90, EBOV Replication
[2] = test system: EBOV GP-pseudotyped vesicular stomatitis virus; experiment: microbe, parasite or virus in culture; type: cell-based, Ebola virus; conditions: for EC50: read-out: EC50, EBOV Entry; for EC90: read-out: EC90, EBOV Entry; for inhibition at 10 µM / inhibition at 50 µM: HEK-293T, read-out: EBOV VPEN (% activity)
[3] = test system: MARV GP-pseudotyped vesicular stomatitis virus; experiment: microbe, parasite or virus in culture; type: cell-based, Marburg virus; conditions: for EC50: read-out: EC50, MARV Entry; for EC90: read-out: EC90, MARV Entry; for inhibition at 10 µM / inhibition at 50 µM: HEK-293T, read-out: MASV VPEN (% activity)
MARV = experiment: organism not typed; type: cell-based, Marburg virus; conditions: for EC50: read-out: EC50, MARV Replication; for EC90: read-out: EC90, MARV Replication
[4] = test system: LASV GP-pseudotyped vesicular stomatitis virus; experiment: microbe, parasite or virus in culture; type: cell-based, Lassa virus; conditions: Vesicular stomatitis virus, HEK-293T, read-out: LASV VPEN (% activity)
EBOV [5] = type: cell-based, Ebola virus
LASV = type: cell-based, Lassa virus
[6] = humans, cited from earlier work
Coxiella burnetii = experiment: microbe, parasite or virus in culture; type: cell-based; conditions: Vero, 168 h, read-out: Coxiella burnetii ICR (% protection)
Francisella tularensis [7] = experiment: microbe, parasite or virus in culture; type: cell-based; conditions: J774.A1, 15 h, read-out: Fransciella tularensis ICR (% protection)
Francisella tularensis [8] = type: cell-based; conditions: 50 µM
Bacillus anthracis [9] = experiment: microbe, parasite or virus in culture; type: cell-based; conditions: J774.A1, 15 h, read-out: Bacillus anthracis ICR (% protection)
Bacillus anthracis [10] = type: cell-based; conditions: 50 µM
[11] = test system: EBOV virus-like particles; type: cell-based, Ebola virus
[12] = Vesicular stomatitis virus, 10 µM

CCN(CC)CCCNc1ccnc2cc(Cl)ccc12 [AQ-13, Aminoquinoline-13]
EC50 (EBOV [1]): 21 µM
EC90 (EBOV [1]): 39 µM
EC50 [2]: 4.3 µM
EC90 [2]: 20 µM
EC50 [3]: 4.3 µM
EC90 [3]: 16 µM
EC50 (MARV): 42 µM
EC90 (MARV): 48 µM

CCOC(=O)C1=C(COCCN)NC(C)=C(C(=O)OC)C1c1ccccc1Cl (centres unmarked) [Amlodipine]
inhibition at 10 µM ([2]; Zaire ebolavirus, 10 µM): 93%
inhibition at 10 µM ([4]; 10 µM): 61%
inhibition at 10 µM [3, 12]: 93%

OC(CCN1CCCCC1)(c1ccccc1)C1CC2C=CC1C2 (centres unmarked) [Biperiden]
inhibition at 50 µM ([2]; Zaire ebolavirus): 98%
EBOV VR (EBOV [5]; 50 µM): −
inhibition at 50 µM [4]: 27%
inhibition at 50 µM ([3]; Vesicular stomatitis virus): 89%
LASV VR (LASV; 50 µM): −

CC(C(=O)O)c1ccc2c(c1)[nH]c1ccc(Cl)cc12 (centres unmarked) [Carprofen]
inhibition at 10 µM ([2]; Zaire ebolavirus, 10 µM): 94%
EBOV VR (EBOV [5]; 10 µM): −
inhibition at 10 µM ([4]; 10 µM): 50%
inhibition at 10 µM [3, 12]: 88%
LASV VR (LASV; 10 µM): −

CC[C@H]1OC(=O)[C@H](C)[C@@H](O[C@H]2C[C@@](C)(OC)[C@@H](O)[C@H](C)O2)[C@H](C)[C@@H](O[C@@H]2O[C@H](C)C[C@H](N(C)C)[C@H]2O)[C@](C)(OC)C[C@@H](C)C(=O)[C@H](C)[C@@H](O)[C@]1(C)O [Clarithromycin]
bioavailable ([6]; no reference given): ~50%

CCC[C@@H]1C[C@@H](C(=O)N[C@@H]([C@H]2O[C@H](SC)[C@H](O)[C@@H](O)[C@H]2O)[C@H](C)Cl)N(C)C1 [Clindamycin]
inhibition of growth at 50 µM (Coxiella burnetii): 0%
inhibition at 50 µM (Francisella tularensis [7]): 83%

CN(C)CC[C@@H](c1ccc(Br)cc1)c1ccccn1 [Dexbrompheniramine]
inhibition at 50 µM ([2]; Zaire ebolavirus): 85%
inhibition at 50 µM [4]: 74%
inhibition at 50 µM ([3]; Vesicular stomatitis virus): 80%

CCCCOc1cc(C(=O)NCCN(CC)CC)c2ccccc2n1 [Dibucaine]
inhibition at 10 µM ([2]; Zaire ebolavirus, 10 µM): 99%
EBOV VR (EBOV [5]; 10 µM): −
inhibition at 10 µM ([4]; 10 µM): 49%
inhibition at 10 µM [3, 12]: 93%

CCOC(=O)C1(c2ccccc2)CCN(CCC(C#N)(c2ccccc2)c2ccccc2)CC1 [Diphenoxylate]
inhibition at 50 µM ([2]; Zaire ebolavirus): 96%
EBOV VR (EBOV [5]; 50 µM): +
inhibition at 50 µM [4]: 83%
inhibition at 50 µM ([3]; Vesicular stomatitis virus): 95%

CN1CCC(OC(c2ccccc2)c2ccccc2)CC1 [Diphenylpyraline]
inhibition at 50 µM ([2]; Zaire ebolavirus): 96%
EBOV VR (EBOV [5]; 50 µM): +
inhibition at 50 µM [4]: 22%
inhibition at 50 µM ([3]; Vesicular stomatitis virus): 85%
LASV VR (LASV; 50 µM): −

CNCC(O)c1ccc(OC(=O)C(C)(C)C)c(OC(=O)C(C)(C)C)c1 (centres unmarked) [Dipivefrin]
inhibition at 50 µM ([2]; Zaire ebolavirus): 94%
EBOV VR (EBOV [5]; 50 µM): −
inhibition at 50 µM [4]: 90%
inhibition at 50 µM ([3]; Vesicular stomatitis virus): 90%
LASV VR (LASV; 50 µM): −

CC[C@H]1OC(=O)[C@H](C)[C@@H](O[C@H]2C[C@@](C)(OC)[C@@H](O)[C@H](C)O2)[C@H](C)[C@@H](O[C@@H]2O[C@H](C)C[C@H](N(C)C)[C@H]2O)[C@](C)(O)C[C@@H](C)C(=O)[C@H](C)[C@@H](O)[C@]1(C)O [Erythromycin]
Fransciella tularensis Broth (% protection) (Francisella tularensis [8]): +
inhibition at 50 µM (Bacillus anthracis [9]): 96%
Bacillus anthracis Broth (% protection) (Bacillus anthracis [10]): +
inhibition at 10 µM ([2]; Zaire ebolavirus, 10 µM): 96%
EBOV VR (EBOV [5]; 10 µM): −
inhibition at 10 µM ([4]; 10 µM): 60%
inhibition of growth at 50 µM (Coxiella burnetii): 100%
inhibition at 10 µM [3, 12]: 98%
inhibition at 50 µM (Francisella tularensis [7]): 104%
LASV VR (LASV; 10 µM): −

C[C@]12CC[C@@H]3c4ccc(O)cc4CC[C@H]3[C@@H]1CC[C@@H]2O [Estradiol]
inhibition at 10 µM ([2]; Zaire ebolavirus, 10 µM): 93%
EBOV VR (EBOV [5]; 10 µM): −
inhibition at 10 µM ([4]; 10 µM): 50%
inhibition at 10 µM [3, 12]: 98%
LASV VR (LASV; 10 µM): −

CNCCC(Oc1ccc(C(F)(F)F)cc1)c1ccccc1 (centres unmarked) [Fluoxetine]
inhibition at 10 µM ([2]; Zaire ebolavirus, 10 µM): 96%
EBOV VR (EBOV [5]; 10 µM): −
inhibition at 10 µM ([4]; 10 µM): 76%
inhibition at 10 µM [3, 12]: 98%
LASV VR (LASV; 10 µM): −

CO/N=C1\CN(c2nc3c(cc2F)c(=O)c(C(=O)O)cn3C2CC2)CC1CN (centres unmarked) [Gemifloxacin]
Fransciella tularensis Broth (% protection) (Francisella tularensis [8]): −
inhibition at 50 µM (Bacillus anthracis [9]): 97%
Bacillus anthracis Broth (% protection) (Bacillus anthracis [10]): −
inhibition of growth at 50 µM (Coxiella burnetii): 0%
inhibition at 50 µM (Francisella tularensis [7]): 91%

CCN(CCO)CCCC(C)Nc1ccnc2cc(Cl)ccc12 (centres unmarked) [HCQ, Hydroxychloroquine]
EC50 (EBOV [1]; Zaire ebolavirus): 22 µM
EC90 (EBOV [1]; Zaire ebolavirus): 32 µM
effect on number of VLPs bound per cell [11]: no significant difference in binding
EC50 ([2]; Zaire ebolavirus): 9.5 µM
EC90 ([2]; Zaire ebolavirus): 85 µM
EC50 ([3]; Vesicular stomatitis virus): 9.8 µM
EC90 ([3]; Vesicular stomatitis virus): 52 µM
EC50 (MARV): 18 µM
EC90 (MARV): 19 µM

CN1CCC(=C2c3ccccc3CC(=O)c3sccc32)CC1 [Ketotifen]
inhibition at 50 µM ([2]; Zaire ebolavirus): 99%
EBOV VR (EBOV [5]; 50 µM): +
inhibition at 50 µM [4]: 33%
inhibition at 50 µM ([3]; Vesicular stomatitis virus): 97%
LASV VR (LASV; 50 µM): −

CCC(=O)O[C@@](Cc1ccccc1)(c1ccccc1)[C@@H](C)CN(C)C [Levopropoxyphene]
inhibition at 50 µM ([2]; Zaire ebolavirus): 98%
inhibition at 50 µM [4]: 79%
inhibition at 50 µM ([3]; Vesicular stomatitis virus): 89%

CN(C)c1ccc(O)c2c1C[C@H]1C[C@H]3[C@H](N(C)C)C(O)=C(C(N)=O)C(=O)[C@@]3(O)C(O)=C1C2=O [Minocycline]
Fransciella tularensis Broth (% protection) (Francisella tularensis [8]): −
inhibition at 50 µM (Bacillus anthracis [9]): 95%
Bacillus anthracis Broth (% protection) (Bacillus anthracis [10]): −
inhibition of growth at 50 µM (Coxiella burnetii): 0%
inhibition at 50 µM (Francisella tularensis [7]): 92%

COc1c(C)c2c(c(O)c1C/C=C(\C)CCC(=O)OCCN1CCOCC1)C(=O)OC2 [Mycophenolate mofetil]
inhibition at 50 µM ([2]; Zaire ebolavirus): 91%
EBOV VR (EBOV [5]; 50 µM): −
inhibition at 50 µM [4]: 69%
inhibition at 50 µM ([3]; Vesicular stomatitis virus): 81%
LASV VR (LASV; 50 µM): −

CCN[C@@H]1C[C@H](N)[C@@H](O[C@H]2OC(CN)=CC[C@H]2N)[C@H](O)[C@H]1O[C@H]1OC[C@](C)(O)[C@H](NC)[C@H]1O [Netilmicin]
Fransciella tularensis Broth (% protection) (Francisella tularensis [8]): +
inhibition at 50 µM (Bacillus anthracis [9]): 98%
Bacillus anthracis Broth (% protection) (Bacillus anthracis [10]): +
inhibition of growth at 50 µM (Coxiella burnetii): 100%
inhibition at 50 µM (Francisella tularensis [7]): -2%

CCn1cc(C(=O)O)c(=O)c2cc(F)c(N3CCNCC3)cc21 [Norfloxacin]
Fransciella tularensis Broth (% protection) (Francisella tularensis [8]): +
inhibition at 50 µM (Bacillus anthracis [9]): 105%
Cmax ([6]; dose not given): 2 µg/mL
Bacillus anthracis Broth (% protection) (Bacillus anthracis [10]): +
inhibition of growth at 50 µM (Coxiella burnetii): 0%
inhibition at 50 µM (Francisella tularensis [7]): 83%

CN1CCCN=C1COC(=O)C(O)(c1ccccc1)C1CCCCC1 (centres unmarked) [Oxyphencyclimine]
inhibition at 50 µM ([2]; Zaire ebolavirus): 95%
EBOV VR (EBOV [5]; 50 µM): −
inhibition at 50 µM [4]: 28%
inhibition at 50 µM ([3]; Vesicular stomatitis virus): 89%
LASV VR (LASV; 50 µM): −

CN(C)[C@@H]1C(O)=C(C(N)=O)C(=O)[C@@]2(O)C(O)=C3C(=O)c4c(O)cccc4[C@@](C)(O)[C@H]3[C@H](O)[C@@H]12 [Oxytetracycline]
Fransciella tularensis Broth (% protection) (Francisella tularensis [8]): +
inhibition at 50 µM (Bacillus anthracis [9]): 94%
Bacillus anthracis Broth (% protection) (Bacillus anthracis [10]): +
inhibition of growth at 50 µM (Coxiella burnetii): 0%
inhibition at 50 µM (Francisella tularensis [7]): 92%

Fc1ccc([C@@H]2CCNC[C@H]2COc2ccc3c(c2)OCO3)cc1 [Paroxetine]
inhibition at 10 µM ([2]; Zaire ebolavirus, 10 µM): 98%
EBOV VR (EBOV [5]; 10 µM): −
inhibition at 10 µM ([4]; 10 µM): 6%
inhibition at 10 µM [3, 12]: 89%
LASV VR (LASV; 10 µM): −

CC(C)(C)NC[C@H](O)COc1ccccc1C1CCCC1 [Penbutolol]
inhibition at 10 µM ([2]; Zaire ebolavirus, 10 µM): 98%
inhibition at 10 µM ([4]; 10 µM): 67%
inhibition at 10 µM [3, 12]: 81%

CN1CCN(CCCN2c3ccccc3Sc3ccc(Cl)cc32)CC1 [Prochlorperazine]
inhibition at 10 µM ([2]; Zaire ebolavirus, 10 µM): 95%
inhibition at 10 µM ([4]; 10 µM): 70%
inhibition at 10 µM [3, 12]: 93%

CNCCCC1c2ccccc2C=Cc2ccccc21 [Protriptyline]
inhibition at 10 µM ([2]; Zaire ebolavirus): 83%
inhibition at 10 µM [4]: 28%
inhibition at 10 µM ([3]; Vesicular stomatitis virus): 80%

CN(C)[C@@H]1C(O)=C(C(N)=O)C(=O)[C@@]2(O)C(O)=C3C(=O)c4c(O)cccc4[C@@](C)(O)[C@H]3C[C@@H]12 [Tetracycline]
inhibition at 50 µM (Bacillus anthracis [9]): 105%
inhibition of growth at 50 µM (Coxiella burnetii): 0%
inhibition at 50 µM (Francisella tularensis [7]): 103%

CN(C)CCOc1ccc(/C(=C(/CCCl)c2ccccc2)c2ccccc2)cc1 [Toremifene]
inhibition at 10 µM ([2]; Zaire ebolavirus, 10 µM): 97%
inhibition at 10 µM ([4]; 10 µM): 76%
inhibition at 10 µM [3, 12]: 96%

OC(CCN1CCCCC1)(c1ccccc1)C1CCCCC1 (centres unmarked) [Trihexyphenidyl]
inhibition at 10 µM ([2]; Zaire ebolavirus): 97%
EBOV VR (EBOV [5]): −
inhibition at 10 µM [4]: 52%
inhibition at 10 µM ([3]; Vesicular stomatitis virus): 91%
LASV VR (LASV): −
